Assay results from patent US20250092029A1 (THE WISTAR INSTITUTE OF ANATOMY AND BIOLOGY, priority 2022, published 2025).
Like-named read-outs stand apart in the source and are kept apart here.

Assays:
SARS-CoV-2 Mpro = SARS-CoV-2 Mpro (Severe acute respiratory syndrome coronavirus 2 (2019-nCoV) (SARS-CoV-2), UniProt P0DTD1); assay: biochemical; format: biochemical
cathepsin B = cathepsin B (Homo sapiens (Human), UniProt P07858); assay: Cathepsin B enzymatic assay; format: biochemical
Procedure: Cathepsin B enzymatic assay Assays contained 0.6 nM cathepsin B (RD systems: 953-CY-010), 25 uM Z-LR-AMC, 100 nL of test compound in 100% DMSO, in at total of 10 uL of 50 mM MES, pH 5.0, 150 mM NaCl, 0.05% CHAPS, 5 mM DTT in black low volume 384-well plates. The production of AMC was followed at 5 min intervals at 355 nm excitation, 460 nm emission in an Envision microplate reader (PerkinElmer). Reaction rates were determined by linear regression of the resulting progress curves. […] Nonlinear regression fits of the data to a one-site dose response curve were performed using XLFit (IDBS).

cathepsin L = cathepsin L (Homo sapiens (Human), UniProt P07711); assay: Cathepsin L enzymatic assay; format: biochemical
Chain of cathepsin L (P07711 114-333): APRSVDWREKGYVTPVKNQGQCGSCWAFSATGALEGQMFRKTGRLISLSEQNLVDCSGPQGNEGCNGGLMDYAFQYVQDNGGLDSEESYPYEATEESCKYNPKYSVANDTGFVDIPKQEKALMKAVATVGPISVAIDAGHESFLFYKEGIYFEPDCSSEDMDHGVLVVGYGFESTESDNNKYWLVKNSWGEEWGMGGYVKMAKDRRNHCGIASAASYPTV
Procedure: Cathepsin L enzymatic assay Assays contained 25 pM cathepsin L (RD systems: 952-CY-010), 5 uM LR-AMC, 100 nL of test compound in 100% DMSO, in at total of 10 uL of 20 mM KPO4, pH 6.0, 150 mM NaCl, 0.005% Tween20, 5 mM DTT in black low volume 384-well plates. The production of AMC was followed at 5 min intervals at 355 nm excitation, 460 nm emission in an Envision microplate reader (PerkinElmer). Reaction rates were determined by linear regression of the resulting progress curves. […] Nonlinear regression fits of the data to a one-site dose response curve were performed using XLFit (IDBS).

thrombin = thrombin (Homo sapiens (Human), UniProt P00734); assay: Thrombin enzymatic assay; format: biochemical
Procedure: Thrombin enzymatic assay Assays contained 25 pM thrombin (RD systems: 1473-SE-010), 25 uM BOC—PVR-AMC, 100 nL of test compound in 100% DMSO, in at total of 10 μL of 50 mM Tris, pH 7.0, 100 mM NaCl, 10 mM CaCl2, 0.005% Tween20 in black low volume 384-well plates. The production of AMC was followed at 5 min intervals at 355 nm excitation, 460 nm emission in an Envision microplate reader (PerkinElmer). Reaction rates were determined by linear regression of the resulting progress curves. […] Nonlinear regression fits of the data to a one-site dose response curve were performed using XLFit (IDBS).

SARS-CoV-2 WT (WA1/2020) = assay: Virus replication in Vero-E6 cells, nucleocapsid immunostaining and high-content imaging, WT; format: cell-based; conditions: for EC50: WT (WA1/2020), 150× TCID50, 48 h, high-content imaging, read-out: EC50 against virus replication
[1] = tested on: SARS-CoV-2 Beta (B.1.351); assay: Virus replication in Vero-E6 cells, nucleocapsid immunostaining and high-content imaging, Beta; format: cell-based
[2] = tested on: SARS-CoV-2 Delta (B.1.617); assay: Virus replication in Vero-E6 cells, nucleocapsid immunostaining and high-content imaging, Delta; format: cell-based; conditions: for EC50: read-out: EC50 against virus replication
[3] = tested on: SARS-CoV-2 (WT virus, WA1/2020); assay: Virus replication in Vero-E6 cells, alamar blue viability readout; format: cell-based; conditions: read-out: EC50 against virus replication
[4] = hamster, in vivo, ip, 10 mg/kg
Procedure: (§1) The compound was administered as a single dose at 10 mg/kg via intraperitoneal injection formulated in 10% DMSO/10% Solutol® HS15/PBS at 2 mg/mL (FIG. 7).

[5] = Metabolic stability in mouse liver microsomes
[6] = Male hamster pharmacokinetic study, plasma and lung; conditions: ip, 10 mg/kg
Procedure: as §1

[7] = tested on: SARS-CoV-2 Omicron (B.1.1.529); assay: Virus replication in Vero-E6 cells, nucleocapsid immunostaining and high-content imaging, Omicron; format: cell-based; conditions: read-out: EC50 against virus replication
[8] = Severe acute respiratory syndrome coronavirus 2, Vero C1008, 96 h, WT (WA1/2020), 96 h, alamar blue viability
[9] = WT (WA1/2020), 96 h, alamar blue viability
[10] = Severe acute respiratory syndrome coronavirus 2, Vero C1008, 48 h

Structure (SMILES)	incubation time to achieve maximum inhibition (SARS-CoV-2 Mpro)	IC50 (cathepsin B; read-out: CatB IC50)	IC50 (cathepsin L; read-out: CatL IC50)	IC50 (thrombin)	EC50 [3, 8]	EC50 [3, 9]	half-life [5]	also measured
O=C(CN1C(=O)[C@@H](NC(=O)OCc2ccccc2)COc2ccccc21)N[C@@H](C[C@@H]1CCNC1=O)C(=O)COC(=O)c1c(Cl)cccc1Cl [AP-8-013, (S)-3-(2-((S)-3-(benzyloxycarbonylamino)-4-oxo-3,4-dihydrobenzo[b][1,4]oxazepin-5(2H)-yl)acetamido)-2-oxo-4-((S)-2-oxopyrrolidin-3-yl)butyl 2,6-dichlorobenzoate]	1 to 2 h	18 µM	> 32 µM	> 32 µM	< 10 µM	7.25 µM	< 2 min	IC50 (cathepsin B; read-out: Cathepsin B IC50): > 15 µM; IC50 (cathepsin L; read-out: Cathepsin L IC50): > 15 µM; reducing viral load (percent infected live cells) (SARS-CoV-2 WT (WA1/2020); WT (USA-WA1/2020), 50× TCID50, 48 h, FIG. 6): effective; reducing viral load (percent infected live cells) [1]: effective; reducing viral load (percent infected live cells) [2]: effective; clinical symptoms during the in-life phase [4]: no abnormal clinical symptoms; lung concentration achieved ([4]; male): about 8 μM; Kp [6]: 3.2
COc1cccc2[nH]c(C(=O)N[C@@H](CC(C)C)C(=O)N[C@@H](C[C@@H]3CCNC3=O)C(=O)COC(=O)c3c(Cl)cccc3Cl)cc12 [AP-8-001, reference compound]	≤ 0.167 h	0.024 ± 0.0075 µM	0.0018 ± 0.00027 µM	> 10 µM	1.97 µM		< 2 min	IC50 (SARS-CoV-2 Mpro): 0.011 µM
CC(C)(C)[C@H](NC(=O)C(F)(F)F)C(=O)N1C[C@H]2[C@@H]([C@H]1C(=O)N[C@H](C#N)C[C@@H]1CCNC1=O)C2(C)C [PF07321332]						1.57 µM		EC50 (SARS-CoV-2 WT (WA1/2020)): 0.38 µM; EC50 [2]: 0.33 µM; EC50 [7]: 0.44 µM
CC(C)C[C@H](NC(=O)OCc1ccccc1)C(=O)N[C@@H](C[C@@H]1CCNC1=O)C(O)S(=O)(=O)O (stereo partly drawn) [GC-376]								EC50 (SARS-CoV-2 WT (WA1/2020); [10]): 0.27 µM; EC50 ([1]; Severe acute respiratory syndrome coronavirus 2, Vero C1008, 48 h, read-out: EC50 against virus replication): 0.29 µM; EC50 [2, 10]: 0.64 µM; EC50 [7, 10]: 0.36 µM; EC50 ([3]; Severe acute respiratory syndrome coronavirus 2, Vero C1008, 96 h): 2.05 µM
N[C@H]1COc2ccccc2N(CC(=O)N[C@@H](C[C@@H]2CCNC2=O)C(=O)COC(=O)c2c(Cl)cccc2Cl)C1=O.O=C(O)C(F)(F)F [AP-9-055, (S)-3-(2-((S)-3-amino-4-oxo-3,4-dihydrobenzo[b][1,4]oxazepin-5(2H)-yl)acetamido)-2-oxo-4-((S)-2-oxopyrrolidin-3-yl)butyl 2,6-dichlorobenzoate 2,2,2-trifluoroacetate]							< 2 min	
O=C(CN1C(=O)[C@@H](NC(=O)c2ccccc2)COc2ccccc21)N[C@@H](C[C@@H]1CCNC1=O)C(=O)COC(=O)c1c(Cl)cccc1Cl [AP-8-011, (S)-3-(2-((S)-3-benzamido-4-oxo-3,4-dihydrobenzo[b][1,4]oxazepin-5(2H)-yl)acetamido)-2-oxo-4-((S)-2-oxopyrrolidin-3-yl)butyl 2,6-dichlorobenzoate]		13 µM	> 32 µM	> 32 µM			< 2 min	
